A short description of series [1]: in vitro. Conditions: human, hep-2 cells.
Series [2] deals with FluA/WSN. Kind of series: Anti-influenza A activity, FluA/WSN (cytopathic effect, crystal violet stain, MDCK cells). Format: cell-based, influenza A virus. The following applies: for IC50: Influenza A virus, WSN, Table II, tested in MDCK cells, read-out: Median Inhibiting Concentration (IC50), FluA/WSN; for activity against A/WSN (in words): strain specificity. On the technique in general: Cytopathic effects are the visible damage that an infection or toxin causes in cultured cells.

A short description of series [3]: in vitro. The following applies: dog, mdck.
A short description of series [4]: in vitro. Conditions: human, mrc-5 cells.
Series [5] is described as follows: in vitro. The following applies: human, a549 cells.
Series [6] is described as follows: in vitro. Conditions: african green monkey, vero cells.
The test system of series [7] is FluA/Kaw. Kind of series: microbe, parasite or virus in culture. Format: cell-based, influenza A virus. The following applies: for IC50: Influenza A virus, in Gallus gallus, read-out: Median Inhibiting Concentration (IC50), FluA/Kaw; for activity against A/Kaw (in words): strain specificity.
Series [8] concerns FluB/Yama. The series is described as follows: microbe, parasite or virus in culture. The following applies: for IC50: Influenza B virus, read-out: Median Inhibiting Concentration (IC50), FluB/Yama; for activity against B/Yama (in words): strain specificity. The class given is cell-based, influenza B virus.
The subject of series [9] is FluA/LA. The series is described as follows: microbe, parasite or virus in culture. The class given is cell-based, influenza A virus. The following applies: for IC50: Influenza A virus, in Gallus gallus, read-out: Median Inhibiting Concentration (IC50), FluA/LA; for activity against A/LA (in words): strain specificity.

In brackets after ≈: the same amount, converted by molar mass. Bounds are passed on as bounds.

In the case of `CC(Cc1ccccc1)(C(=NC#N)NCCc1ccccc1)c1ccccn1` (stereo not drawn) [Example 1, N'-Cyano-α-methyl-N-(2-phenylethyl)-α-(phenylmethyl)-2-pyridineethanimidamide], the MCC in series [1], in [3], in [4], in [5] and in [6] was above 50 µg/mL each time. Further, the IC50 in [2] was 0.16 to 0.5 µg/mL (≈ 0.434 to 1.36 µM); in series [7], 0.5 to 1.6 µg/mL (≈ 1.36 to 4.34 µM); in series [8], above 16 µg/mL; in [9], above 16 µg/mL. Besides, the “activity against A/WSN (in words)” value in series [2] was “active”. For the same compound, the “activity against A/Kaw (in words)” value in series [7] is recorded as “active”. The “activity against B/Yama (in words)” value in series [8] was “inactive”. The “activity against A/LA (in words)” value in series [9] is “inactive”.
Consider `CC(Cc1ccccc1)(C(=NC#N)NCc1ccco1)c1ccccn1` (stereo not drawn) [Example 2, N'-Cyano-N-(2-furanylmethyl)-α-methyl-α-(phenylmethyl)-2-pyridineethanimidamide], for which the MCC in [1], in series [3], in [4], in [5] and in [6] was above 50 µg/mL each time. Besides, the IC50 in series [2] was 0.16 to 0.5 µg/mL (≈ 0.465 to 1.45 µM); in series [7] it was 0.5 to 1.6 µg/mL (≈ 1.45 to 4.65 µM); in series [8] it was above 16 µg/mL; in [9], above 16 µg/mL. In [2], the “activity against A/WSN (in words)” value is given as “active”. Also, the “activity against A/Kaw (in words)” value in series [7] is on record as “active”. Besides, the “activity against B/Yama (in words)” value in series [8] was “inactive”. Moreover, the “activity against A/LA (in words)” value in [9] is “inactive”.
In the case of `CSC(=NC#N)NCCSCc1cccnc1Nc1ccccc1` [Example 3, N'-cyano-N-[2-[[[2-(phenylamino)-3-pyridinyl]methyl]thio]ethyl]carbamimidothioic acid methyl ester], the MCC in series [1], in series [3], in series [4], in series [5] and in [6] was above 100 µg/mL in each case.
`NC12CC3CC(CC(C3)C1)C2` [Amantadine, reference compound]: the MCC in series [1], in [3], in [4], in series [5] and in [6] was above 100 µg/mL in each case. Besides, the IC50 in [2] was 16 µg/mL (≈ 106 µM); in series [7] it was 0.5 to 1.6 µg/mL (≈ 3.31 to 10.6 µM); in series [8], above 16 µg/mL; in series [9], 0.16 µg/mL (≈ 1.06 µM).
Consider `NC(=O)c1ncn([C@@H]2O[C@H](CO)[C@@H](O)[C@H]2O)n1` [Ribavirin, reference compound], for which the MCC in [1], in series [3], in series [4], in series [5] and in series [6] was above 100 µg/mL each time. The IC50 in [2] is 1.6 to 5 µg/mL (≈ 6.55 to 20.5 µM); in series [7], above 16 µg/mL; in [8] it was 1.6 to 5 µg/mL (≈ 6.55 to 20.5 µM); in series [9] it was above 16 µg/mL.

The values above are taken from US5475012A, “N-cyanoamidine derivatives as anti-influenza agents” (priority 1994, dated 1995).
